{
  "source": "paper PMC11022698",
  "about": "“Precisely Activating cGAS‐STING Pathway with a Novel Peptide‐Based Nanoagonist to Potentiate Immune Checkpoint Blockade Cancer Immunotherapy” (Advanced Science, 2024)",
  "key": {"cGAS-STING pathway [1]": {"tested_on": "cGAS-STING pathway", "test": "Secretion levels of cGAMP and IFN-β in B16F10 cells", "assay_type": "cell-based", "details": "KLA-treated B16F10 cells; n = 3"}, "[2]": {"tested_on": "B16F10 tumor-bearing C57BL/6 mouse model", "test": "Anti-tumor immune responses after i.t. or i.v. injection of AMPs", "assay_type": "in vivo, C57BL/6 mice", "details": "7.5 mg kg^-1; for DCs maturation (CD80+ CD86+ CD11c+ cells) in lymph nodes: representative flow cytometric plot", "method": "Next, the B16F10 tumor‐bearing C57BL/6 mouse model was established to investigate whether KLA can initiate efficient anti‐tumor immune responses by activating the cGAS‐STING pathway. The KLA was administrated either through intratumoral (i.t.) or intravenous (i.v.) injection at the dose of 7.5 mg kg^−1, 17BIPHE2 and CGA‐N12 were employed as comparative groups."}, "B16F10 cells [3]": {"tested_on": "B16F10 cells", "test": "qRT-PCR quantification of cytosolic mtDNA", "assay_type": "cell-based", "details": "n = 3", "method": "(§1) B16F10 cells were seeded in a 12-well plate at a density of 5×10^4 cells per well and […]\n(§2) with PBS, the cells were collected by centrifugation. Cytosolic mtDNA was […] using a Cell Mitochondria Isolation Kit (C3601, Beyotime, China), and the DNA was then extracted with a TIANamp Genomic DNA kit (DP304, Tiangen Biotech, China) following the manufacturer’s protocol. The mtDNA D-Loop primers were synthesized by GenePharma Biotech (detailed sequences in Table S3, Supporting Information), and then quantified with Multiplex PCR Kit (PM101, Novoprotein , Shanghai, China) using Quantitative Real-Time PCR Detection System (Bio-Rad, CFX96, USA).\n(§3) Caspase-9 and Caspase-3 Activity Assay\n(§4) The B16F10 cells were seeded into a 6-well plate at the density of 2×10^5 cells per […]\n(§5) cells were rinsed with PBS for three times and then treated with lysis buffer solution in ice bath for 1 h. Cell lysates were centrifuged at 12000 rpm for 5 min at 4 °C, and the supernatant was collected. The supernatant was incubated with caspase-9 or caspase-3 substrate at 37 °C in dark for 12 h. The activities of caspase-9 and caspase-3 were […]\n(§6) Evaluation of cGAS-STING Pathway Activation\n(§7) Western bolt was employed to evaluate the MAPN-mediated activation of cGAS-STING pathway. Briefly, B16F10 cells were first seeded into 24-well plates at 2×104 […]\n(§8) culture medium with or without H2O2 (100 μM). […]"}, "cGAS-STING pathway [4]": {"tested_on": "cGAS-STING pathway", "test": "Western blot of p-STING, p-TBK1 and p-IRF3 in B16F10 cells", "assay_type": "cell-based", "details": "40 µM, n = 3", "method": "as §1, §2, §3, §4, §5, §6, §7, §8"}, "B16F10 cells [5]": {"tested_on": "B16F10 cells", "test": "mtDNA leakage assay, immunofluorescence of dsDNA Marker and anti-TOMM20 (CLSM)", "assay_type": "cell-based", "details": "KLA-treated B16F10 cells, n = 3", "method": "The endosomal escape ability of MAPN was study by analyzing the colocolization of endosomes and KLA after internalizing into cells. Briefly, B16F10 cells were seeded […]\novernight for cell attachment. KLA was labeled with FITC. The cells were incubated […]\nH2O2 (100 μM) for 4 h. After 1 h, 3 h, and 6 h incubation, endosomes were stained with LysoTracker probe (red) according to manufacture’s instruction. The cells were then […]\nat room temperature, and counterstained with DAPI for the easy observation of cell […]\nIn Vitro PD-1/PD-L1 Pathway Blockade\nMAPN-mediated PD-1/PD-L1 pathway blockade was evaluated with anti-PD-L1 (sc-518027, Santa Cruz, USA) staining. Briefly, B16F10 cells were seeded at a density […]\nat room temperature, and then stained with Alexa Fluor 594 (red) labeled anti -PD-L1 […]\nB16F10 cells were seeded at a density of 1×10^4 cells per well in 35 mm confocal dish (Ф =15 mm) and incubated overnight for cell attachment. The cells were incubated […]\nwithout H2O2 (100 μM) for 24 h. After washing with PBS, the cells were permeabilized, and incubated with Anti-TOMM20 antibodies (GB111481, Servicebio, China) and dsDNA Marker (sc-58749, Santa Cruz, USA) at 4 °C overnight, and then incubated with secondary antibodies for 2 h and counterstained with DAPI. All the cells were observed using a CLSM (Zeiss, Germany).\nThe qPCR Quantification of Cytosolic mtDNA"}},
  "data": [
    {"substance": "KLAKLAK2 [model antimicrobial peptide that promotes mtDNA leakage by changing mitochondrial inner membrane permeability]", "values": [
      {"measurement": "IFN-β level, fold over PBS-treated cells", "setting": "cGAS-STING pathway [1]", "result": 2.03, "unit": "fold"},
      {"measurement": "cGAMP level, fold over PBS-treated cells", "setting": "cGAS-STING pathway [1]", "result": 1.85, "unit": "fold"},
      {"measurement": "DCs maturation, fold over PBS treatment", "setting": "[2]; i.t. injection, n = 6", "result": 2.53, "unit": "fold"},
      {"measurement": "pro-inflammatory cytokines (IFN-β, IFN-γ, TNF-α, IL-6, IL-12) in tumor tissues compared with other groups", "setting": "[2]; i.t. injection, n = 6", "result": "significantly higher levels"},
      {"measurement": "tumor-infiltrating CD8+ T cells, fold over PBS treatment", "setting": "[2]; i.t. injection, n = 6", "result": 2.36, "unit": "fold"},
      {"measurement": "DCs maturation (CD80+ CD86+ CD11c+ cells) in lymph nodes", "setting": "[2]; i.t. injection", "result": 31.4, "unit": "%"},
      {"measurement": "initiation of systemic anti-tumor immune responses", "setting": "[2]; i.v. injection", "result": "weak effect"},
      {"measurement": "DCs maturation (CD80+ CD86+ CD11c+ cells) in lymph nodes", "setting": "[2]; i.v. injection", "result": 17.9, "unit": "%"},
      {"measurement": "cytosolic mtDNA level, fold over 17BIPHE2-treated cells", "setting": "B16F10 cells [3]", "result": 2.41, "unit": "fold"},
      {"measurement": "cytosolic mtDNA level, fold over CGA-N12-treated cells", "setting": "B16F10 cells [3]", "result": 1.87, "unit": "fold"},
      {"measurement": "phosphorylation levels of STING, TBK1, and IRF3 proteins", "setting": "cGAS-STING pathway [4]", "result": "remarkably increased"},
      {"measurement": "Pearson correlation coefficient of dsDNA and mitochondria (TOMM20)", "setting": "B16F10 cells [5]", "result": 0.464}
    ]}
  ]
}
